These results are taken from patent US4302540A, “Process of producing optically active cephalosporin analogs by enzyme selective deacylation” (Kyowa Hakko Kogyo Co., Ltd., priority 1979, dated 1981).

Test systems include Proteus mirabilis 1287; Escherichia coli Juhl; Serratia marcescens T-26.
Assay in all cases: Antimicrobial activity, Heart Infusion Agar Dilution Method (pH 7.2)
What all share (format): cell-based
On the technique in general: Agar dilution tests growth on a series of plates holding different concentrations.

The subject of test [1] is Klebsiella pneumoniae Y-60. The conditions noted are these: Y60.
In test [2] the test system is Escherichia coli GN2411-5. An excerpt:
(§1) Antimicrobial activities of the compound obtained in Reference Example 9 are as follows. Heart Infusion Agar Dilution Method (pH 7.2) is used.

Test [3] relates to Staphylococcus aureus Smith.
Source text: as §1

The test system of the next test is Proteus rettgeri KY 4289. The conditions noted are these: Providencia rettgeri, KY4289.
Source text: as §1

The test system of the next test is Proteus vulgaris 6897.
Source text: as §1

Another test has as its system Serratia marcescens T-55. The conditions noted are these: T55.
Source text: as §1

Test [4] has as its system Staphylococcus epidermidis.
Source text: as §1

For the next test, the system named is Pseudomonas putida 264.
Source text: as §1

Test [5] deals with Pseudomonas aeruginosa 145.
Source text: as §1

For a further test, the system named is Proteus morganii KY 4298.
Source text: as §1

The test system of test [6] is Klebsiella pneumoniae 8045.
The test system of another test is Escherichia coli NIHJC-2. The following applies: NIHJC2.
Test [7] relates to Pseudomonas aeruginosa #1.
Source text: as §1

In test [8] the test system is Staphylococcus aureus 209-P.
Source text: as §1

Where [9] appears, read: Morganella morganii, KY4298, read-out: MIC.

Values after ≈ are worked out from the molar mass of the structure shown. Where two headings read alike, the source gives them in different places.

What is called MIC is the lowest concentration that inhibits growth of the organism. As to `CO/N=C(\C(=O)N[C@@H]1C(=O)N2C(C(=O)O)=C[C@@H](O)C[C@H]12)c1csc(N)n1` (relative stereo) [B, (±)-cis-7β-[2-(2-amino-4-thiazolyl)-2-syn-methoxyiminoacetamido]-4α-hydroxy-1-azabicyclo[4,2,0]oct-2-en-8-on-2-carboxylic acid], the MIC in [1] was 0.02 µg/mL (≈ 0.0524 µM); with Proteus mirabilis 1287, 0.1 µg/mL (≈ 0.262 µM); with Escherichia coli Juhl it was 0.05 µg/mL (≈ 0.131 µM); in test [2], 0.02 µg/mL (≈ 0.0524 µM); in test [3] it was 25 µg/mL (≈ 65.6 µM); against Proteus rettgeri KY 4289, below 0.01 µg/mL. The MIC stood at 0.1 µg/mL (≈ 0.262 µM) in the test with Proteus vulgaris 6897; 0.02 µg/mL (≈ 0.0524 µM) against Serratia marcescens T-55; 50 µg/mL (≈ 131 µM) in test [4] (read-out: MIC); 0.02 µg/mL (≈ 0.0524 µM) in the test on Pseudomonas putida 264 (read-out: MIC); 12.5 µg/mL (≈ 32.8 µM) in [5] (read-out: MIC); 0.05 µg/mL (≈ 0.131 µM) in the test on Proteus morganii KY 4298 (setting [9]). The minimal inhibitory concentration (MIC) in [6] was 0.02 µg/mL (≈ 0.0524 µM); against Escherichia coli NIHJC-2 it was 0.05 µg/mL (≈ 0.131 µM).

For the compound `N[C@@H](C(=O)NC1C(=O)N2C(C(=O)O)=CC(O)CC12)c1ccccc1` (stereo in doubt) [C, cis-7β-[(R)-2-phenylglycinamido]-4α-hydroxy-1-azabicyclo[4,2,0]oct-2-en-8-on-2-carboxylic acid], the MIC in [7] is above 100 µg/mL; in test [4], 12.5 µg/mL (≈ 37.7 µM); against Pseudomonas putida 264, 12.5 µg/mL (≈ 37.7 µM); in [5], above 100 µg/mL; in the test with Proteus morganii KY 4298, 12.5 µg/mL (≈ 37.7 µM); against Serratia marcescens T-26, 100 µg/mL (≈ 302 µM).

Turning to `CO/N=C(\C(=O)N[C@@H]1C(=O)N2C(C(=O)O)=C[C@@H](O)C[C@H]12)c1csc(N)n1` [A, (4S,6R,7S)-7-[2-(2-amino-4-thiazolyl)-2-syn-methoxyiminoacetamido]-4-hydroxy-1-azabicyclo[4,2,0]oct-2-en-8-on-2-carboxylic acid], the MIC in [1] was at most 0.01 µg/mL; against Proteus mirabilis 1287 it was 0.05 µg/mL (≈ 0.131 µM); with Escherichia coli Juhl, at most 0.01 µg/mL; in test [2], at most 0.01 µg/mL; in [3] it was 12.5 µg/mL (≈ 32.8 µM); in the test with Proteus rettgeri KY 4289, at most 0.01 µg/mL. Besides, the MIC against Proteus vulgaris 6897 is at most 0.01 µg/mL; against Serratia marcescens T-55, 0.05 µg/mL (≈ 0.131 µM); in test [4] (read-out: MIC) it was 25 µg/mL (≈ 65.6 µM); in the test on Pseudomonas putida 264 (read-out: MIC) it was 0.02 µg/mL (≈ 0.0524 µM); in [5] (read-out: MIC), 6.25 µg/mL (≈ 16.4 µM); in the test on Proteus morganii KY 4298 (setting [9]), at most 0.01 µg/mL. Also, the MIC in test [6] is at most 0.01 µg/mL; with Escherichia coli NIHJC-2 it was 0.02 µg/mL (≈ 0.0524 µM).

As to `Cc1nnc(SCC2=C(C(=O)O)N3C(=O)[C@@H](NC(=O)Cn4cnnn4)[C@H]3SC2)s1` [Cefazolin, reference compound], the MIC stood at 3.12 µg/mL (≈ 6.86 µM) in test [1]; 12.5 µg/mL (≈ 27.5 µM) against Proteus mirabilis 1287; 0.78 µg/mL (≈ 1.72 µM) in test [2]; 0.78 µg/mL (≈ 1.72 µM) in test [3]; 0.02 µg/mL (≈ 0.044 µM) in [8]; 25 µg/mL (≈ 55 µM) with Proteus rettgeri KY 4289. For the same compound, the MIC in the test with Proteus vulgaris 6897 was 25 µg/mL (≈ 55 µM); in the test on Serratia marcescens T-55, above 100 µg/mL; in test [7] (read-out: MIC) it was above 100 µg/mL; in test [4] (read-out: MIC), 0.78 µg/mL (≈ 1.72 µM); in the test with Pseudomonas putida 264 (read-out: MIC) it was above 100 µg/mL; in test [5] (read-out: MIC), above 100 µg/mL. Moreover, the MIC in the test with Proteus morganii KY 4298 (setting [9]) was above 100 µg/mL; in the test with Serratia marcescens T-26 (T26, read-out: MIC) it was above 100 µg/mL.
